In US5792750A, “Materials and method for control of pests” (priority 1997, dated 1998):
No end group written: not given here.

Key:
[1] = tested on: trypsin-like enzyme biosynthesis in the midgut; test: Inhibition of trypsin-like enzyme biosynthesis after injection of peptides into ligated abdomens of blood-fed female mosquitoes; type: in vivo, Aedes aegypti; conditions: for ability to inhibit trypsin-like enzyme biosynthesis: ligated abdomens of female A. aegypti, 24 hours after injection; for biological activity: against Aedes aegypti, compared with TMOF or among the analogs
[2] = Stability in solution of mosquito homogenate (including digestive enzymes); type: in vitro ADME; conditions: room temperature, two weeks
Source text: The compounds of the subject invention are white powders that are highly soluble in water. They can be synthesized on a commercial peptide synthesizer. […] Thus, these peptides are particularly attractive for the control of mosquitoes and other pests. Another advantage of the penta- and octa-peptides of the subject invention is that they are more rapidly absorbed in the insect gut. […] Thus, the novel peptides display a more rapid action, a decreased chance for insect gut enzymes to proteolyze the peptide, and high activity. The peptides were not affected by 1% trifluoroacetic acid and were routinely purified using this acid on HPLC.

| Substance | ability to inhibit trypsin-like enzyme biosynthesis [1] | biological activity [1] | activity after standing in mosquito homogenate [2] |
| --- | --- | --- | --- |
| YDPAPPPPPP [TMOF, reference compound] | demonstrated an ability to inhibit trypsin-like enzyme biosynthesis |  |  |
| YDPAPPPP [Peptide P4, H2 N--YDPAP4 --COOH] | demonstrated an ability to inhibit trypsin-like enzyme biosynthesis | retains biological activity |  |
| YDPAP [Peptide P1, H2 N--YDPAP--COOH] | demonstrated an ability to inhibit trypsin-like enzyme biosynthesis | even greater activity than the octa-peptideP4 | without loss of activity |
